The values that follow come from patent US12075697B2, “Inert solution-processable molecular chromophores for organic electronic devices” (The Regents of the University of California, priority 2012, dated 2024).

Holding throughout (assay type): physicochemical
A short description of data set [1]: Acid sensitivity: solution absorption profile as function of trifluoroacetic acid concentration. Conditions: trifluoroacetic acid in chloroform, up to ten equivalents. The text has this: To probe acid sensitivity, the solution absorption profiles of p-DTS(FBTTh2)2 (see Scheme 1, above) and d-DTS(PTTh2)2
[drawing 71] a pyridine-containing analog, were monitored as function of concentration of trifluoroacetic acid.

A short description of data set [2]: Solution cyclic voltammetry (HOMO/LUMO levels). On the procedure: (§1) Optical properties were investigated using UV-visible absorption spectroscopy. […] Solution cyclic voltammetry measurements indicated the highest occupied molecular orbital (HOMO) and lowest unoccupied molecular orbital (LUMO) were −5.12 and −3.34 eV, respectively, and line up appropriately with the frontier molecular orbitals of common fullerene acceptors.
Electrochemistry: All electrochemical measurements were performed using CHI instrument model 730B in a standard three-electrode, one compartment configuration equipped with Ag/AgCl electrode, Pt wire and Glassy carbon electrode (dia. 3 mm), as the pseudo reference, counter electrode and working electrode respectively. Glassy carbon electrodes were polished with alumina. The cyclic voltammetry (CV) experiments were performed in anhydrous dichloromethane solution with ˜0.1 M tetrabutylammonium hexafluorophosphate (TBAPF6) as the supporting electrolyte at scan rate 50 mV/s unless otherwise stated. All electrochemical solutions were purged with dry Ar for 15 minutes to deoxygenate the system. Solution CV measurements were carried out with a small molecule concentration of ˜1 mg/mL in CH2Cl2. Ferrocene was used as an internal standard. The HOMO and LUMO levels were obtained by correlating the onsets (Eox^Fc/Fc+, Erd^Fc/Fc+) to the normal hydrogen electrode (NHE), assuming HOMO of Fc/Fc^+ to be 4.88 eV.

Data set [3] can be described thus: UV-visible absorption spectroscopy. Particulars: for optical band gap: from λonset. The procedure: as §1
UV-vis: UV-visible spectroscopy were recorded using either a Beckman Coulter DU 800 series or Perkin Elmer Lambda 750 spectrophotometer at room temperature unless otherwise noted. All solution UV-vis experiments were run in CHCl3. Films were prepared by spin-coating CHCl3 or chlorobenzene solutions onto glass substrates. Films were annealed directly on a hot plate for 2 minutes.

Regarding `CCCCCCc1ccc(-c2ccc(-c3cc(F)c(-c4cc5c(s4)-c4sc(-c6c(F)cc(-c7ccc(-c8ccc(CCCCCC)s8)s7)c7nsnc67)cc4[Si]5(CC(CC)CCCC)CC(CC)CCCC)c4nsnc34)s2)s1` (stereo not drawn) [p-DTS(FBTTh2)2, 7,7′-(4,4-bis(2-ethylhexyl)-4H-silolo[3,2-b:4,5-b′]dithiophene-2,6-diyl)bis(6-fluoro-4-(5′-hexyl-[2,2′-bithiophen]-5-yl)benzo[c][1,2,5]thiadiazole)], the “change of absorption spectrum on addition of acid” value in data set [1] is on record as “remains effectively unchanged”. Further, in data set [2], the “highest occupied molecular orbital (HOMO)” value is reported as −5.12 eV and the “lowest unoccupied molecular orbital (LUMO)” value is −3.34 eV. In data set [3] (solid state (thin film)), the λmax is 678 nm and the λonset is given as 800 nm. In data set [3] (solid state), this molecule returned an optical band gap of 1.55 eV. In data set [3] (solution (chloroform)), this molecule showed a λmax of 590 nm, a λonset of 670 nm and an optical band gap of 1.85 eV.
